Laboratory results as given in US8445441B2, “Inhibitors of BCL-2” (Case Western Reserve University, priority 2007, dated 2013).

Experiments:
[1] = test system: murine embryonic fibroblasts (MEFs); test: unidirectional 45Ca2+ flux, IP3-induced efflux; format: cell-based; settings: in the presence of thapsigargin
Excerpt: The conclusion that peptide 2 acts directly on the Bcl-2-IP3R interaction is supported not only by experiments described above (FIG. 5) in which peptide 2 reversed Bcl-2-mediated inhibition of IP3R channel opening in vitro, but also by unidirectional ^45Ca^2+ flux experiments that allow for very accurate quantification of Ca^2+ release through IP3Rs located on the ER. These experiments require firmly adherent cells, and therefore murine embryonic fibroblasts (MEFs), which have a somewhat lower level of endogenous Bcl-2 than Jurkat cells, were employed. The rate of IP3-induced ^45Ca^2+ efflux was measured in the presence of thapsigargin, which completely prevents ER Ca^2+ reuptake.

IP3R type 1 channel = test: single IP3R channel activity in planar lipid bilayers; format: biochemical; settings: 2 μM IP3, 250 nM Ca2+
Protocol: FIG. 5 illustrates a summary of multiple experiments (mean±SEM) measuring effects of Bcl-2 and peptides on IP3R channel open probability. n=number of individual channels examined. Symbols represent mean±SEM. *p<0.05.
The effects of peptide 2 and purified Bcl-2 on IP3R channel activity were analyzed in planar lipid bilayers under steady-state conditions. Single IP3R type 1 channel activity was visualized as a series of discrete positive current fluctuations in the presence of 2 μM IP3 and 250 nM Ca^2+ in the cis compartment (cytoplasmic side of channel). A significant reduction in single channel activity was observed after adding 0.1 μM purified Bcl-2 to the cytoplasmic face of the IP3R channel, and addition of 10 μM peptide 2 reversed Bcl-2's inhibitory effect on channel activity. Average open probabilities under various conditions were calculated from multiple repeated experiments (FIG. 5). Addition of Bcl-2 reduced IP3R open probability by 11.5-fold to 0.018.

Jurkat cells [2] = test: Fas-induced Ca2+-independent apoptosis; format: cell-based
Jurkat cells [3] = test: anti-CD3-induced apoptosis (apoptotic nuclei); format: cell-based
Protocol: FIG. 7 illustrates peptide 2 Enhances Anti-CD3-Induced Apoptosis in Bcl-2-Positive Cells (A) Typical apoptotic nuclear morphology (arrow, Hoechst 33342 stain) 24 hr after 5 μg/ml anti-CD3 treatment of Jurkat cells. Scale bars, 10 μm. (B) Bcl-2(−) and Bcl-2(+) WEHI7.2 cells were pre-incubated±60 μM peptides plus Chariot reagent and then incubated with 20 μg/ml anti-CD3 for 24 hr. Symbols represent the percentage of cells (mean±SEM) with apoptotic nuclei in three experiments for Bcl-2(−) and five experiments for Bcl-2(+) cells (200 cells counted per coverslip). (C) Jurkat cells were pre-incubated±60 μM peptides±Chariot reagent and then incubated with 5 μg/ml anti-CD3 for 24 hr. Symbols represent the percentage of cells (mean±SEM) with apoptotic nuclei in five experiments (240 cells counted per coverslip).
Peptide 2 also attenuated Bcl-2's inhibition of anti-CD3-induced apoptosis in Jurkat cells. In preliminary studies (data not shown), we tested several anti-CD3 concentrations. Higher concentrations of anti-CD3 induced high levels of apoptosis that might obscure the effect of the peptide. We therefore used 5 μg/ml anti-CD3, sufficient to induce 20%-30% apoptosis.

Jurkat cells [4] = test: anti-CD3-induced Ca2+ elevation by digital imaging; format: cell-based
Protocol: (§1) FIGS. 6A-D illustrates peptide 2 (SEQ ID NO:3) Reverses Bcl-2's Inhibition of Anti-CD3-Induced Ca^2+Elevation. (A) Representative Ca^2+ traces (each the mean of ˜65 cells) recording anti-CD3 (arrow, time of addition)-induced Ca^2+ elevation in Bcl-2(+) WEHI7.2 cells. Peptide (60 μM) uptake was facilitated by Chariot reagent. (B) Peak anti-CD3 induced Ca^2+ elevation in Bcl-2(−) and Bcl-2(+) WEHI7.2 cells treated with peptides as in (A) [mean±SEM, five experiments for Bcl-2(−) and seven experiments for Bcl-2(+) cells, with mean 68 cells per sample per experiment]. (C) Representative Ca^2+ traces in Jurkat cells (mean 85 cells each). Treatment conditions are the same as in (A), except that a control involving addition of peptide 2 without Chariot reagent has been added. (D) Peak anti-CD3-induced Ca^2+ elevation in Jurkat cells treated with peptides as in (C) (mean±SEM, seven experiments, mean 81 cells per sample per experiment).
(§2) Next we investigated whether peptide 2 also reverses Bcl-2's inhibitory effect on Ca^2+ release through the IP3R in Bcl-2(+) and (−) WEHI7.2 clones, newly derived WEHI7.2 mixed populations exogenously expressing Bcl-2, and Jurkat cells. Optimal conditions for peptide delivery and anti-CD3 concentration were determined in preliminary experiments. Peptide delivery in the lipid bilayer is 100%, whereas the penetration of peptide 2 into cells is much less, accounting for the lesser effect in cells. Therefore, a higher concentration of peptide (60 μM) was delivered into cells using the Chariot delivery reagent. Cytoplasmic Ca^2+ concentration was continuously measured at a single-cell level by digital imaging during anti-CD3 treatment. Representative Ca^2+ traces from Bcl-2(+) WEHI7.2 cells are shown in FIG. 6A, and the average Ca^2+ elevation induced by anti-CD3 in seven experiments is summarized in FIG. 6B. Observed variations in lag phase are at least partially attributable to the fact that lymphocytes are only loosely adherent to coverslips and thus rapid buffer exchange is not possible during antibody additions. Peptide 2 enhanced anti-CD3-induced Ca^2+ elevation in Bcl-2(+) WEHI7.2 cells by 40%. […] Peptide 2 had no effect on Ca^2+ elevation when added to the cells in the absence of the Chariot reagent. […] The low Bcl-2 level in Jurkat cells and the barely detectable endogenous Bcl-2 in Bcl-2(−) WEHI7.2 cells are consistent with the higher amplitude and longer duration of the Ca^2+ response in these cells in contrast to Bcl-2(+) WEHI7.2 cells (compare FIGS. 6A and 6B to FIGS. 6C and 6D). Thus, peptide 2 modulated anti-CD3-induced Ca^2+ elevation in both Bcl-2(+) WEHI7.2 cells and Jurkat cells, consistent with the ability of peptide 2 to disrupt Bcl-2-IP3R interaction.

WEHI7.2 cells = test: anti-CD3-induced Ca2+ elevation by digital imaging; format: cell-based; settings: 60 μM peptide with Chariot reagent
Protocol: as §1, §2

NVYTEIKCNSLLPLDDIVRV (listed as Homo sapiens) [peptide 2, 20 amino acid peptide, aa 1389-1408 of IP3R subdomain 3a1]
rate of IP3-induced 45Ca2+ efflux [1]: significantly increased
IP3R open probability (IP3R type 1 channel; 10 μM peptide after 0.1 μM purified Bcl-2, Bcl-2 alone 0.018): 0.16
reversal of Bcl-2's inhibitory effect on channel activity (IP3R type 1 channel; after 0.1 μM purified Bcl-2): reversed
enhancement of Fas-induced Ca2+-independent apoptosis (Jurkat cells [2]): did not enhance
anti-CD3-induced apoptosis (percentage of apoptotic cells) (Jurkat cells [3]; 60 μM peptide with Chariot, 5 μg/ml anti-CD3, 24 hr, anti-CD3 alone 20%-30%): 40%-45%
effect on anti-CD3-induced apoptosis (Jurkat cells [3]; peptide in the absence of Chariot reagent): did not have an effect
enhancement of anti-CD3-induced Ca2+ elevation (Jurkat cells [4]; Jurkat cells with endogenous Bcl-2 knocked down by siRNA): did not enhance
enhancement of anti-CD3-induced Ca2+ elevation (Jurkat cells [4]; Jurkat cells, 60 μM peptide with Chariot reagent): significantly enhanced
effect on intracellular Ca2+ levels (Jurkat cells [4]; absence of anti-CD3 stimulation (data not shown)): did not affect
effect on Ca2+ elevation (Jurkat cells [4]; peptide added in the absence of Chariot reagent): no effect
enhancement of anti-CD3-induced Ca2+ elevation (WEHI7.2 cells; Bcl-2(+) WEHI7.2 cells): 40%
effect on anti-CD3-induced Ca2+ elevation (WEHI7.2 cells; Bcl-2(−) WEHI7.2 cells): did not have a significant effect
